Values of other authors as cited in US20110110886A1, “SMALL MOLECULE INHIBITORS OF AUTOTAXIN AND METHODS OF USE” (Yale University, priority 2008, published 2011).

Details: oral doses of 50 mg/kg in 3 divided alternate daily doses for 5 days; rabbits, dogs, and humans; cited from earlier work

## Oc1c(Cl)cc(Cl)cc1Sc1cc(Cl)cc(Cl)c1O [Bithionol]
  serum levels: 140 to 550 µM
